Measurements as given in article PMC3371634 (Biochemical pharmacology, 2007).

Molecular target: ABCB1 (P-glycoprotein) (Homo sapiens, UniProt P08183)
Assay: ABCB1 ATPase stimulation in plasma membrane vesicles
Format: biochemical

ABCB1 (P-glycoprotein), sequence (P08183 whole entry): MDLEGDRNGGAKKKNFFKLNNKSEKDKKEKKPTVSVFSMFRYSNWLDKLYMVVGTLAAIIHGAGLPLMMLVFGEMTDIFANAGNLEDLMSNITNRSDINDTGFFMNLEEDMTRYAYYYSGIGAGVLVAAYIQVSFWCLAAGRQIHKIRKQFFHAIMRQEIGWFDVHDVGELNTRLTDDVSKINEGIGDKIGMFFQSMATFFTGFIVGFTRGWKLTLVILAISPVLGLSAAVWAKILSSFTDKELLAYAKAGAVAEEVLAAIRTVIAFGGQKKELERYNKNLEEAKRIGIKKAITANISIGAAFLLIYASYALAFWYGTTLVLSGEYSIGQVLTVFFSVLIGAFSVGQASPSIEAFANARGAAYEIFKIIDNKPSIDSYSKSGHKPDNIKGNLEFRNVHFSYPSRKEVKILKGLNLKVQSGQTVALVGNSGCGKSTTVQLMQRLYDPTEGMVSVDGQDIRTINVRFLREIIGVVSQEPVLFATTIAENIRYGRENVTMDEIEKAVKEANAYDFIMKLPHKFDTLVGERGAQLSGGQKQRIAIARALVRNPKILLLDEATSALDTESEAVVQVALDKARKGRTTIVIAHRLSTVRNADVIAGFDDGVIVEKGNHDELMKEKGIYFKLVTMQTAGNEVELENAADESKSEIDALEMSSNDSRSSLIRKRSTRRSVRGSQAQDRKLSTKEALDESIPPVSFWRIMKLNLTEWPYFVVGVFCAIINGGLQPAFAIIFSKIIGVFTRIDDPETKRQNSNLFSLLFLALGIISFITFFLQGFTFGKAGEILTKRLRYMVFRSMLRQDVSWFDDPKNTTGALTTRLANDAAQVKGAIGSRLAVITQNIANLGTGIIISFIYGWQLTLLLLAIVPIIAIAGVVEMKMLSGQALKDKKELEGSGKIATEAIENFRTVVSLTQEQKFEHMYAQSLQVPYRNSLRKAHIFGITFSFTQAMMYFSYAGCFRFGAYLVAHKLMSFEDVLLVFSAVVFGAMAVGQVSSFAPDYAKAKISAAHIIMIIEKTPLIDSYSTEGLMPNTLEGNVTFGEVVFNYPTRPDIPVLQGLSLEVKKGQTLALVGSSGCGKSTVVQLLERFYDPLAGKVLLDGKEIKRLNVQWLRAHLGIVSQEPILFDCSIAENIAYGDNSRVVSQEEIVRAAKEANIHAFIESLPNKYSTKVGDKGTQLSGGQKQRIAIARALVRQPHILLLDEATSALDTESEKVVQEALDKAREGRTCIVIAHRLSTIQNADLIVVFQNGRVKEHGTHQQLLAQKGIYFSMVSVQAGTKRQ

Work on `[La+3].c1cnc2c(c1)ccc1cccnc12.c1cnc2c(c1)ccc1cccnc12.c1cnc2c(c1)ccc1cccnc12` [KP772, [tris(1,10-phenanthroline)lanthanum(III)] trithiocyanate] yielded an EC50 greater than 100 µM.
